Test results published in patent US11220486B2 (La Jolla Institute of Allergy & Immunology, priority 2014, dated 2022).
Like-named read-outs stand apart in the source and are kept apart here. Each block holds one compound with its values, some of them ahead of it.

How the values were obtained:
[1] = Liver function: serum alanine transaminase or aspartate transaminase of treated mice; format: in vivo; settings: mice treated 30 mg/kg daily IP
Method: Serum alanine transaminase or aspartate transaminase levels from mice treated with Compound D1 (ML400) or vehicle (mice shown in FIG. 10) were assessed using EnzyChrom Assay Kits from BioAssay Systems.

3T3-L1 pre-adipocytes = assay: Insulin-based 3T3-L1 adipogenesis assay (AdipoRed); format: cell-based, mouse; settings: 10 μM
Method: The probe Compound D1 was also profiled in an insulin-based mouse 3T3-L1 adipogenesis assay. In this assay, 3T3-L1 pre-adipocytes are grown to 2-days post-confluence in DMEM with 10% bovine calf serum, and then induced to differentiate to adipocytes following stimulation for 2 days with an induction cocktail containing […] insulin, 1 μM dexamethasone, and 0.5 mM 3-isobutyl-1-methylxanthine in DMEM containing 10% fetal bovine serum (FBS).^44 2 days later, the media is replaced with DMEM with 10% FBS and 1 μg/ml insulin, and after 2 additional days, the media is replaced with DMEM with 10% FBS for 2 additional days, at which point adipogenesis is measured using the AdipoRed Adipogenesis Assay Reagent from Lonza, according to the manufacturer's instructions. In brief, the assay reagent is added to the wells containing cells, where it partitions into the fat droplets of differentiated adipocytes, and emits fluorescence at 572 nm that can be detected with a plate-reader. To test the effect of probe Compound D1, cells were plated into 48-well plates and allowed to grow to confluence. Cells were then treated with 10 μM Compound D1 or 0.025% DMSO, and after 2 days induced to differentiate in the presence of 10 μM Compound D1 or 0.025% DMSO. Fresh compound or DMSO was added during each media replacement.

[2] = Rodent pharmacokinetics (IV, PO, IP); format: in vivo, Male C57BL/6 Mice; settings: mouse
Method: The inventors also examined ML400 (also described herein as MLS-0472870 or Compound D1) for its rodent pharmacokinetics. The probe Compound D1 was profiled in Male C57BL/6 Mice, with n=3 for each group studied (IV, IP and PO arms). The formulation used was 1.00 mg/mL in DMSO:Tween80:Water=5:5:90, which gave a clear solution. […] Enterohepatic circulation was also observed for this compound. This compound has acceptable parameters for future in vivo studies (see Table 4 and FIG. 13).

[3] = Kidney function: serum creatinine of treated mice; format: in vivo; settings: mice treated 30 mg/kg daily IP
Method: Serum creatinine levels from mice treated with Compound D1 (ML400) or vehicle (mice shown in FIG. 9) were assessed using the QuantiChrom Creatinine Assay Kit from BioAssay Systems.

[4] = tested on: obese mice (glucose tolerance); assay: IPGTT in high-fat-diet obese mice; format: in vivo, Male C57BL/6 mice; settings: 30 mg/kg daily IP, 4 weeks, HFD obese mice, 2 g glucose/kg
Method: Male C57BL/6 mice were maintained on HFD containing 60 kcal % fat for 3 months, followed by daily IP administration of 30 mg/kg Compound D1 or vehicle. After 4 weeks, IPGTT were performed using 2 g glucose/kg body weight. Mean±SEM is shown. *, p<0.05, Two-way ANOVA.

[5] = Aqueous solubility in buffer pH 5.0-7.4 and PBS; format: physicochemical
[6] = molecular target: LMPTP-A (Low Molecular Weight Protein Tyrosine Phosphatase-A) enzyme (Homo sapiens (Human), UniProt P24666); assay: LMPTP primary screening / LMPTP (OMFP) enzyme inhibition assay, fluorescence intensity; format: biochemical
Method: This assay attempts to identify inhibitors of the LMPTP-A (Low Molecular Weight Protein Tyrosine Phosphatase-A) enzyme. It is run in 1536-well format and is measured via fluorescence intensity.
A listing of materials is provided: • Item, source, catalog no. • LMPTP-A Enzyme Stock Solution (4.22 mg/ml or 206.8 μM), SBMRI Protein Facility, • N/A • OMFP, Sigma, M2629-100 MG • Bis-Tris pH 6.0, Fisher Sci, BP301-100 • Triton-X 100, Sigma, T9284 • DTT, Sigma, D9779 • Mol. Grade Water, Mediatech, Inc., 46-000-CM • 1536-well black High base opaque bottom plate, Nexus Biosystems, 00019120
Assay Procedure • 1. Prepare Reagents as described in section F. Recipe. • 2. Using LabCyte Echo, transfer 60 nL from 2 mM test compound source plate into assay plate Col. 5-48 (final concentration of test compounds is 20 μM). 60 nL of DMSO should be transferred to col. 1-4 for positive and negative control wells. • 3. Spin plates at 1000 rpm for 1 minute in centrifuge. • 4. […] Using the Bioraptr, add 3 μL/well of enzyme solution to col. 3-48. • 6. Using the Bioraptr, add 3 μL/well of substrate solution to col. 1-48. • 7. Spin plates at 1000 rpm for 1 minute in centrifuge. • 8. Incubate plates in the dark at room temperature for 50 minutes. • 9. Read plates on PerkinElmer Viewlux using a FI protocol.

[7] = Hepatic microsomal stability, mouse; format: in vitro ADME
Description: The microsomal stability assay is commonly used to rank compounds according to their metabolic stability. This assay addresses the pharmacologic question of how long the parent compound will remain circulating in plasma within the body.

[8] = tested on: insulin receptor in human HepG2 hepatocytes; settings: HepG2 cells, 10 microM overnight, 1.76 microM insulin 5 min

Sequence of LMPTP-A (Low Molecular Weight Protein Tyrosine Phosphatase-A) enzyme (P24666 whole entry): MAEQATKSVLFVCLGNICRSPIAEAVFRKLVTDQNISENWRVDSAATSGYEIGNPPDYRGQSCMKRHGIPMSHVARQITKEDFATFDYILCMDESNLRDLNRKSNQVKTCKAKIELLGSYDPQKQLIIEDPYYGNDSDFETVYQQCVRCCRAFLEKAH

Compound: CN(C)Cc1cccc(Nc2cc(-c3ccc(Cl)cc3F)nc3ccccc23)c1 [Compound I9, [(3-{[2-(4-chloro-2-fluorophenyl)(4-quinolyl)]amino}phenyl)methyl]dimethylamine]
IC50 ([6]; read-out: IC50): 801 to 5000 nM

Compound: c1ccc(-c2cc(NCCN3CCCCC3)c3ccccc3n2)cc1 [Entry 41]
Hepatic Microsome Stability % Remaining @ 1 hr [7]: 0.38%
phosphorylation of the insulin receptor [8]: increases phosphorylation of the insulin receptor

Compound: CSCCCN1CCCCC1 [Entry 64]
IC50 ([6]; S sample: compound synthesized de novo by SBCCG, read-out: LMPTP (OMFP) (IC50)): 66900 nM

Now from value to compound, other results behind:

liver function (serum alanine transaminase or aspartate transaminase) [1]: does not Affect Liver Function
Enterohepatic circulation [2]: observed
kidney function (serum creatinine) [3]: does not Affect Kidney Function
solubility in PBS ([5]; PBS, compared with aqueous buffer): comparable
concentration achieved in aqueous buffer relative to IC50 ([5]; pH range of 5.0-7.4): 18-20 ×IC50
Compound: COc1ccc(-c2cc(NCCCN3CCCCC3)c3ccccc3n2)cc1 [Compound D1, 2-(4-methoxyphenyl)-N-(3-(piperidin-1-yl)propyl)quinolin-4-amine]
3T3-L1 adipogenesis (3T3-L1 pre-adipocytes): completely abolished
glucose tolerance (IPGTT) [4]: Improves Glucose Tolerance

IC50 ([6]; read-out: IC50): 801 to 5000 nM
Compound: CNC(=O)c1ccc(-c2cc(NCCCN3CCCCC3)c3ccccc3n2)cc1F [Compound I228]

IC50 ([6]; read-out: IC50): 200 to 800 nM
Compound: CCN(CC)CCNC(=O)c1ccc(-c2cc(NCCCN3CCCCC3)c3ccccc3n2)cc1 [Compound I254]
